From PMC11050424, “Antibacterial and Hemolytic Activity of Antimicrobial Hydrogels Utilizing Immobilized Antimicrobial Peptides” (International Journal of Molecular Sciences, 2024)
Converted amounts (≈) assume the structure as drawn. Residues, ends and D or L forms follow the SMILES beside them.

Columns and labels:
[1] = system: P. aeruginosa (CCUG 56489); format: cell-based, Pseudomonas aeruginosa
Experimental: (§1) The minimum inhibitory concentration protocol was adapted from [42], with the main change in volume for easier observation. In short, the protocol was as follows: a single colony of Staphylococcus aureus (CCUG 10778) or Pseudomonas aeruginosa (CCUG 56489) was inoculated in 4 mL of TSB and cultivated at 37 °C until OD ~ 0.7 which corresponds to a concentration of roughly 10^9 CFU mL^−1. This was then diluted 1000 times to a concentration of roughly 10^6 CFU mL^−1 using Mueller Hinton broth (MH broth). In the meantime, the different peptides were weighed in separate 15 mL falcon tubes and dissolved in MH broth for a concentration of 512 µM. Serial dilution by a factor of 2 was then performed, with MH broth, in a 24-well plate, leaving 500 µL of solution in each well. Then, 500 µL of the bacterial solution was added to each well resulting in a starting concentration of 5 × 10^5 CFU mL^−1. […] The plates were cultivated overnight (16–18 h) and the minimum inhibitory concentration was determined for the lowest concentration where no visible growth was observed. Three separate experiments were performed for all peptides and bacteria.

[2] = system: S. aureus (CCUG 10778); format: cell-based, Staphylococcus aureus
Experimental: as §1

[3] = system: defibrinated horse blood; format: cell-based; settings: red cells of horse, 1 h
Experimental: The use of hemolysis assays to study AMPs is a common implementation and quite standardized with small variations. Serial dilutions of the free AMPs were prepared in PBS to obtain 100 µL in Eppendorf tubes of the concentrations: 2, 4, 8, 16, 32, 64, 128, and 256 µM. A total of 100 µL of just PBS was added to an Eppendorf tube to serve as a negative control, and 100 µL of 0.2% Triton X-100 was added to an Eppendorf tube to serve as a positive control. The functionalized 8 mm Ø hydrogels as well as non-functionalized control hydrogels were placed in Eppendorf tubes together with 0.1, 0.2, 0.3 mL, or 0.4 mL PBS, two samples per type. For each volume, a set of negative control (PBS) and positive control (0.2% Triton X-100) was included using a matching volume. The blood used for the study was defibrinated horse blood from Thermo Fisher Scientific. The blood was placed in a 15 mL falcon tube and centrifuged at 4 °C for 10 min at 1000× g. The supernatant was discarded, and the erythrocytes were resuspended in 4 °C PBS and again centrifuged and the supernatant was removed. […]
The Eppendorf tubes were placed in an incubator at 37 °C for 1 h and the tubes were rotated 3 times every 15 min to limit sedimentation of the red blood cells. […] The absorbance was read at 540 nm using a Multiskan GO from Thermo Fisher Scientific. The rate of hemolysis was determined by Equation (2). […]

NCCCC[C@H](NC(=O)[C@@H](N)CCCCN)C(=O)N1CCC[C@H]1C(=O)N[C@@H](CCCCN)C(=O)N1CCC[C@H]1C(=O)N[C@@H](CCCCN)C(=O)N1CCC[C@H]1C(=O)N[C@@H](CCCCN)C(=O)N1CCC[C@H]1C(=O)N[C@@H](Cc1c[nH]c2ccccc12)C(=O)N[C@@H](Cc1c[nH]c2ccccc12)C(=O)N[C@@H](Cc1c[nH]c2ccccc12)C(=O)N[C@@H](Cc1c[nH]c2ccccc12)C(N)=O [K9W4] (H-KKPKPKPKPWWWW-NH2)
MIC, P. aeruginosa [1]: 64 to 128 µM

N=C(N)NCCC[C@H](NC(=O)[C@@H]1CCCN1C(=O)[C@H](CCCNC(=N)N)NC(=O)[C@@H]1CCCN1C(=O)[C@H](CCCNC(=N)N)NC(=O)[C@@H]1CCCN1C(=O)[C@H](CCCCN)NC(=O)[C@@H](N)CCCCN)C(=O)N1CCC[C@H]1C(=O)N[C@@H](Cc1c[nH]c2ccccc12)C(=O)N[C@@H](Cc1c[nH]c2ccccc12)C(=O)N[C@@H](Cc1c[nH]c2ccccc12)C(=O)N[C@@H](Cc1c[nH]c2ccccc12)C(N)=O [KR9W4] (H-KKPRPRPRPWWWW-NH2)
MIC, S. aureus [2]: 8 to 16 µM | MIC, P. aeruginosa [1]: 16 to 64 µM

CC[C@H](C)[C@H](N)C(=O)N[C@@H](CC(C)C)C(=O)N[C@@H](CCCNC(=N)N)C(=O)N[C@@H](Cc1c[nH]c2ccccc12)C(=O)N1CCC[C@H]1C(=O)N[C@@H](Cc1c[nH]c2ccccc12)C(=O)N[C@@H](Cc1c[nH]c2ccccc12)C(=O)N1CCC[C@H]1C(=O)N[C@@H](Cc1c[nH]c2ccccc12)C(=O)N[C@@H](CCCNC(=N)N)C(=O)N[C@@H](CCCNC(=N)N)C(=O)N[C@@H](CCCCN)C(N)=O [Omiganan, reference compound] (H-ILRWPWWPWRRK-NH2)
MIC, S. aureus [2]: 4 to 8 µM | MIC, P. aeruginosa [1]: 32 µM (≈ 56.9 µg/mL)

CC[C@H](C)[C@H](NC(=O)CNC(=O)[C@H](CCCNC(=N)N)NC(=O)[C@H](Cc1ccccc1)NC(=O)[C@@H](NC(=O)[C@H](Cc1c[nH]cn1)NC(=O)[C@H](Cc1c[nH]cn1)NC(=O)[C@H](Cc1ccccc1)NC(=O)[C@@H](N)Cc1ccccc1)[C@@H](C)CC)C(=O)N[C@H](C(=O)N[C@@H](Cc1c[nH]cn1)C(=O)N[C@H](C(=O)NCC(=O)N[C@@H](CCCCN)C(=O)N[C@H](C(=O)N[C@H](C(=O)N[C@@H](Cc1c[nH]cn1)C(=O)N[C@@H](CCCNC(=N)N)C(=O)N[C@@H](CC(C)C)C(=O)N[C@H](C(=O)N[C@H](C(=O)NCC(N)=O)[C@@H](C)O)C(C)C)[C@@H](C)CC)[C@@H](C)O)C(C)C)C(C)C [Piscidin 1, reference compound] (H-FFHHIFRGIVHVGKTIHRLVTG-NH2)
Hemolysis at 8–16 µM (observed MIC values against P. aeruginosa) [3]; 16: 60–100% | MIC, S. aureus [2]: 1 to 2 µM | MIC, P. aeruginosa [1]: 8 to 16 µM

N=C(N)NCCC[C@H](NC(=O)[C@@H](N)CCCNC(=N)N)C(=O)N1CCC[C@H]1C(=O)N[C@@H](CCCNC(=N)N)C(=O)N1CCC[C@H]1C(=O)N[C@@H](CCCNC(=N)N)C(=O)N1CCC[C@H]1C(=O)N[C@@H](CCCNC(=N)N)C(=O)N1CCC[C@H]1C(=O)N[C@@H](Cc1c[nH]c2ccccc12)C(=O)N[C@@H](Cc1c[nH]c2ccccc12)C(=O)N[C@@H](Cc1c[nH]c2ccccc12)C(=O)N[C@@H](Cc1c[nH]c2ccccc12)C(N)=O [R9W4] (H-RRPRPRPRPWWWW-NH2)
Hemolysis at corresponding MIC values [3]: below 20% | MIC, S. aureus [2]: 8 µM (≈ 15.5 µg/mL) | MIC, P. aeruginosa [1]: 16 µM (≈ 30.9 µg/mL)

N=C(N)NCCC[C@H](NC(=O)[C@@H](N)CCCNC(=N)N)C(=O)N1CCC[C@H]1C(=O)N[C@@H](CCCNC(=N)N)C(=O)N1CCC[C@H]1C(=O)N[C@@H](CCCNC(=N)N)C(=O)N1CCC[C@H]1C(=O)N[C@@H](CCCNC(=N)N)C(=O)N1CCC[C@H]1C(=O)N[C@@H](Cc1c[nH]c2ccccc12)C(=O)N[C@@H](Cc1c[nH]c2ccccc12)C(=O)N[C@@H](Cc1c[nH]c2ccccc12)C(=O)N[C@@H](Cc1c[nH]c2ccccc12)C(=O)N[C@@H](Cc1c[nH]c2ccccc12)C(N)=O [R9W5] (H-RRPRPRPRPWWWWW-NH2)
MIC, S. aureus [2]: 16 µM (≈ 33.9 µg/mL) | MIC, P. aeruginosa [1]: 32 to 64 µM
